Entries after “also recorded” stand apart in the source; their conditions may differ.
Tests used:
[1] = Micro-injection in NTS: BP and HR; type: in vivo, rats; conditions: NTS micro-injection, 0.03, 0.3 μmol, within 30 minutes after injection
Source text: Micro-injection in NTS. Rats were anesthetized and placed in a David-Kopf stereotaxic instrument. The cerebellum was exposed after removing the skin and occipital bone. […] At the end of experiments, the animals were sacrificed. The brain was removed and sectioned for histological confirmation of the drug application site.

β1-adrenoceptor = target: T1, β1-adrenoceptor (Rattus norvegicus, UniProt P18090); experiment: Isoprenaline-induced positive inotropic effect in electrically stimulated rat left atria; type: cell-based; conditions: 10^−8, 10^−7, 10^−6 M, isolated rat left atria
T1 construct: isoprenaline-induced concentration-response curves in isolated rat left atria; from tissue; host or cells: isolated rat left atria
T1 sequence (P18090 whole entry): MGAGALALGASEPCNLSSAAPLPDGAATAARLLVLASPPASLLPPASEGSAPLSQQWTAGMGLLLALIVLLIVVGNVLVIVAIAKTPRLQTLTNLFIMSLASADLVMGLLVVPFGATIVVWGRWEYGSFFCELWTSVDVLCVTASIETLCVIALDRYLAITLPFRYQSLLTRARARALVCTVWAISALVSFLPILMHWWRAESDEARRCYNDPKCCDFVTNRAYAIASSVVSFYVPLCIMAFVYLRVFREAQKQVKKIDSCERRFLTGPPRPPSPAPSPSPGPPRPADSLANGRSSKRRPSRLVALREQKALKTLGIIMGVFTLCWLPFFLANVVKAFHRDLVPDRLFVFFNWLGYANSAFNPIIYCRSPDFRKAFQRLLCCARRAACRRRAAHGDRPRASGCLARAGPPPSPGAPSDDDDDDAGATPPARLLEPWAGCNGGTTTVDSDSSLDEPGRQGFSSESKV
Procedure: Isolation of rat left atria. Rats of either sex weighing 350–500 g were sacrificed after mild anesthesia with ether, and their hearts were quickly excised. Left atria were dissected from the hearts and mounted in a 10 ml organ bath with one end fixed and the other end connected to a force displacement transducer (Grass, Model FT03). The experiments were carried out at 37° C. in a Krebs solution of the following composition (mM): NaCl 113, KCl 4.8, CaCl2 2.2, KH2PO4 1.2, MgCl2 1.2, NaHCO3 25, Dextrose 11.0; bubbled with a 95% O2+5% CO2 mixture. Atria were pre-stretched to a baseline tension of 0.5 g and equilibrated for 60 min in an aerated Krebs solution before starting experimental protocols. Atria were driven at 2-s intervals via two platinum electrodes on each side. An incubation time of 30 min was allowed for the test compound. Data were calculated as a percentage of the maximum contraction (Wu et al., 2001).

α2 receptors = experiment: Receptor binding, [3H]yohimbine, rat cortex; parameters: species or system Wistar rat
Procedure: (§1) Drugs and chemicals. […] Eugenosedin-A synthesized in this laboratory was solvated in 50% absolute alcohol, 10% propylene glycol and further diluted with distilled water. All of the [^3H] ligand was purchased from New England Nuclear Corp. (Boston, Mass., U.S.A.).
(§2) Receptor binding studies. […] The homogenate was pressure filtered through muslin. Filtrate was centrifuged at 1000 g for 10 min. Supernatant was centrifuged at 10,000 g for 12 min at 4° C. The second supernatant was centrifuged at 30,000 g for 15 min at 4° C. The final pellet was re-suspended in assay buffer (75 mM Tris HCl, 25 mM MgCl2, pH 7.4). Protein content was determined by Bradford's method. Radioligand agents and membranes (200–300 μg) were incubated for 60 min at 25° C. with or without the addition of nonspecific binding agents, in a 75 mM Tris HCl buffer with 25 mM MgCl2, to make a final volume of 500 μl. In competitive-binding experiments, the competing agent was added directly to the incubation mixture. Incubation was terminated by addition of 1 ml of ice-cold assay buffer followed by immediate filtration through Whatman GF/C glass fiber filters supported on a 12-port filter manifold (Millipore). The filters were immediately washed 3 times with 5 ml of ice-cold assay buffer and dried in an oven at 60° C. for 2 hours before adding 5 ml of Triton-toluene-based scintillation fluid. Membrane-bound radioligand trapped in the filters was counted in a Beckman LS6500 scintillation system (Fullerton, Calif., U.S.A) with an efficiency of 45%. In each experiment, nonspecifically bound radioligand agents were determined by incubating membrane protein. Specific binding for each sample was obtained by deducting this value from the total binding of radioligand agents.

β2 receptors = target: T2, β2 receptors (Rattus norvegicus, UniProt P10608); experiment: Receptor binding, [3H]CGP-12177, rat lung; parameters: species or system Wistar rat
T2 construct: with [^3H]CGP-12177 on β2 receptors in rat lung; from tissue; host or cells: Wistar rat lung membranes
T2 sequence (P10608 whole entry): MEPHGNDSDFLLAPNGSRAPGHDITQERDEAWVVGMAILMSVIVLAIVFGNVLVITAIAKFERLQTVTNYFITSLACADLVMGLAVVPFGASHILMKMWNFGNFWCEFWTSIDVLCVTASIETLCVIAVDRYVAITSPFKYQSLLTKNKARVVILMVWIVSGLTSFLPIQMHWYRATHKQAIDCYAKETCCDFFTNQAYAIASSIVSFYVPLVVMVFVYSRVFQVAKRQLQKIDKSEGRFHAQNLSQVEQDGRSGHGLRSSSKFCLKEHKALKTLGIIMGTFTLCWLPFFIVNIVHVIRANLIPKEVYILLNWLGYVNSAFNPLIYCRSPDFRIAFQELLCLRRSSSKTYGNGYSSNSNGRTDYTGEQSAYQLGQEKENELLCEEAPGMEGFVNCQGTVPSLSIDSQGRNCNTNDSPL
Procedure: as §1
as §2, with “Incubation was terminated by addition of 1 ml of ice-cold assay buffer followed by immediate filtration through Whatman GF/C glass fiber filters supported on a 12-port filter manifold (Millipore). The filters were immediately washed 3 times with 5 ml of ice-cold assay buffer and dried in an oven at 60° C. for 2 hours before adding 5 ml of Triton-toluene-based scintillation fluid.” left out, “Specific binding for each sample was obtained by deducting this value from the total binding of radioligand agents.” left out

5-HT re-uptake sites = target: T3, 5-HT re-uptake sites (Rattus norvegicus, UniProt P31652); experiment: 5-HT re-uptake in cerebral cortex synaptosomes; type: biochemical, Wistar rats
T3 construct: the cerebral cortex or striatum was dissected and crude synaptosomes were prepared; from tissue; host or cells: crude synaptosomes of Wistar rat cerebral cortex
T3 sequence (P31652 whole entry): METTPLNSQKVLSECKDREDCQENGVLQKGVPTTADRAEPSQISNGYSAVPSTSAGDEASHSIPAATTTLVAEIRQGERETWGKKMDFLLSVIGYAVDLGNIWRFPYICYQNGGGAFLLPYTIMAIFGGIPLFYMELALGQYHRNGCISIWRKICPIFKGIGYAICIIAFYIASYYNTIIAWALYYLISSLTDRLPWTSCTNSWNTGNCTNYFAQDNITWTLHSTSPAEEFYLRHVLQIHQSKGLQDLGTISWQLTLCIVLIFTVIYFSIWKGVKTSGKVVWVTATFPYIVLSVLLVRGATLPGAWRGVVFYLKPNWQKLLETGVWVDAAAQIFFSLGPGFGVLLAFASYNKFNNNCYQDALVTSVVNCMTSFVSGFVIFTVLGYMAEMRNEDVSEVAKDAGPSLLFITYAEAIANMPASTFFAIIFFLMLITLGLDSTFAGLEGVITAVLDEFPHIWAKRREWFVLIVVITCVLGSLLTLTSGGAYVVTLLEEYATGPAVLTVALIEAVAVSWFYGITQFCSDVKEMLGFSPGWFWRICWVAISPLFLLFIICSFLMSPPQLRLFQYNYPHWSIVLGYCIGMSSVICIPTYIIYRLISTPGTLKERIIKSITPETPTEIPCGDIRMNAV
Procedure: Saline was added to the incubation mixture, which was then filtered through a Whatman GF/B glass filter under reduced pressure. To determine nonspecific uptake, incubation was performed at 0° C.

[2] = Peroxyl radical scavenging, B-phycoerythrin/AAPH; type: biochemical
Procedure: The stoichiometric factors of the test compounds with hydrophilic peroxyl radicals were calculated by the equation as mentioned Ascorbic acid was used as a positive control.

LPS-induced hypotension = type: in vivo, Wistar rats; conditions: LPS 10 mg kg^−1 i.v.
Procedure: Intravenous injection. The experiments were carried out as previously described (Wu B N. et al., Biochem. Pharmacol., 48:101–109, 1994). In brief, Wistar rats weighing 250–300 grams were anesthetized with pentobarbital sodium (50 mg kg^−1, i.p.). Following tracheal cannulation, systemic arterial BP and HR were recorded from the femoral artery by a pressure transducer (model P10EZ; Spectramed, Oxnard, Calif., U.S.A.) connected to a recorder (GOULD, Valley View, Ohio, Model P50). Body temperature was maintained at 37° C. by an electric heating pad. A femoral vein was cannulated for intravenous injection of drugs and LPS (10 mg kg^−1).

IFN-γ = experiment: Plasma cytokine immunoreactivity after LPS: IFN-γ; type: in vivo, Wistar rats; conditions: 3 hours after LPS 10 mg kg^−1 i.v.; pretreatment 1 mg kg^−1 i.v.
Procedure: (§3) Plasma cytokine immunoreactivity and blood glucose. Blood was collected from venous cannula, injected into ice-cold heparinized Eppendorf tubes and centrifuged at 1500 rpm for 10 min at 4° C. Plasma supernatant was stored at −70° C. until analyzed. Solid phase enzyme immunoassay that specifically detects murine IL-1β, IL-6, IFN-γ and TNF-α was used with a detection limit of >10 pg/ml (Endogen, U.S.A). Pretreatment with eugenosedin-A and other agents was performed 15 minutes before intravenous injection of LPS. Blood was collected from venous cannula. Blood glucose was measured with a glucose test strip (Glucotide, Bayer, U.S.A) at 1, 3 and 5 hours.

TNF-α = experiment: Plasma cytokine immunoreactivity after LPS: TNF-α; type: in vivo, Wistar rats
Procedure: as §3

Survival rate after LPS = type: in vivo, ddk mice; conditions: pretreatment 0.5, 1, 5 mg kg^−1 i.p., LPS 60 mg kg^−1
5-HT2A receptor = 5-HT2A receptor (Rattus norvegicus, UniProt P14842); experiment: Receptor binding, [3H]ketanserin, rat cortex; parameters: from tissue; host or cells: Wistar rat cortex membranes; species or system Wistar rat
Chain of 5-HT2A receptor (P14842 whole entry): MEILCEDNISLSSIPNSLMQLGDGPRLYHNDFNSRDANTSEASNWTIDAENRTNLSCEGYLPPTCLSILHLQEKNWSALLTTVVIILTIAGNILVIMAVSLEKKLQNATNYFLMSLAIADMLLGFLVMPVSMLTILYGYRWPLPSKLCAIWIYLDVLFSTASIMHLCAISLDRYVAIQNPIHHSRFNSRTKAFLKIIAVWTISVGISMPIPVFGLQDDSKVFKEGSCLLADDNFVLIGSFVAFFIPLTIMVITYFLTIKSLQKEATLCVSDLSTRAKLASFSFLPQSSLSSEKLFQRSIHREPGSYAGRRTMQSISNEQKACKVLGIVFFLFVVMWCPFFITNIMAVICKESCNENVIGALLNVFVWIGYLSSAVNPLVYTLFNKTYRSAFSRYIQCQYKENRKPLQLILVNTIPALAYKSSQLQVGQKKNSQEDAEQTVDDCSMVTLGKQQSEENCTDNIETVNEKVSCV
Procedure: as §1, §2

With `CC=Cc1ccc(OCC(O)CN2CCN(c3ccccc3Cl)CC2)c(OC)c1` (stereo not shown) [eugenosedin-A] the “pressor response and HR” value [1] was “mild, but significant, pressor responses and increased the HR”, the “cumulative isoprenaline-induced positive inotropic effects” value (β1-adrenoceptor) was “concentration-dependently inhibited” and the Ki (α2 receptors) was 1390 nM. The “order of α2 receptor binding potency” value (α2 receptors) was “prazosin >eugenosedin-A >ketanserin >methylsergide >propranolol and 5-HT”, the Ki (β2 receptors) was > 10000 nM and the IC50 (5-HT re-uptake sites) was 34300 nM. The “scavenging of AAPH-derived peroxyl radicals (B-phycoerythrin fluorescence, lag time)” value [2] was “concentration-dependent decrement of fluorescence and prolongation of the lag time”, the “development of hypotension after LPS injection and normalization of BP” value (LPS-induced hypotension; i.v. pretreatment) was “normalized BP within 5 hours” and the “first immediate hypotensive phase after LPS” value (LPS-induced hypotension; pretreatment 0.5 mg kg^−1 i.v.) was “not affected”. The “first immediate hypotensive phase after LPS” value (LPS-induced hypotension; pretreatment 1 mg kg^−1 i.v.) was “attenuated it”, the “second prolonged hypotensive phase after LPS” value (LPS-induced hypotension; pretreatment 0.5 and 1 mg kg^−1 i.v.) was “significantly reduced” and the “LPS-induced increase in IFN-γ” value (IFN-γ) was “significantly inhibited”. For the same molecule, the “LPS-induced increase in TNF-α” value (TNF-α; 3 hours after LPS 10 mg kg^−1 i.v., pretreatment (eugenosedin-A 1 mg kg^−1 i.v.)) was “significantly inhibited”, the “LPS-induced increase in TNF-α” value (TNF-α; 5 hours after LPS 10 mg kg^−1 i.v., pretreatment) was “significantly reduced” and the “survival rate after LPS” value (Survival rate after LPS; at 12 hrs) was “significantly increased”. For the same molecule, the “time of LPS-induced death” value (Survival rate after LPS) was 36 h, the “binding affinity for 5-HT2A receptors” value (5-HT2A receptor) was “higher binding affinity than other β-adrenergic antagonists; also recorded: higher binding affinity than propranolol” and the “order of potency on 5-HT2A receptors” value (5-HT2A receptor) was “ketanserin >methylsergide >eugenosedin-A >5-HT >propranolol >prazosin”. The Ki (5-HT2A receptor; [3H]ketanserin, rat cortex) was 33.3 nM.

Reference: patent US7105521B2, “Eugenosedin-A based pharmacoligical agents” (Syn-Tech Chem & Pharm Co., Ltd., priority 2003, dated 2006)
